The nature of the data set: in vitro. Conditions: human, hela cells, % viability.

Molecules are shown by their SMILES.

Regarding `O=C(O)CCSc1nc(-c2ccccc2)c(-c2ccccc2)n1-c1ccccc1` [CBK264837], the viability (commonly a read-out of living cells in per cent, often relative to untreated cells) at 28.5 h, 10 µM was 113%. In the case of `O=C(O)C1CC(=O)N(CCc2c[nH]c3ccc(Cl)cc23)C1` (stereo not shown) [CBK287211], the viability at 28.5 h, 10 µM is 91%. The figure for `Fc1ccc(C2CCc3n[nH]cc3C2)cc1` (stereo not shown) [CBK015957C] is 92%. The figure for `O=C(CSCc1ccccc1)Nc1ccc2c3c(cccc13)CC2` [CBK264916] is 107%; for `COc1cccc(CNCc2ccco2)c1OCc1ccccc1F` [CBK270271C] it is 92.6%. For `N#CCCSc1nnc(-c2cccnc2)n1Cc1ccccc1` [CBK267526] the value was 100%.

Take `CCOC(=O)CN1CCN(S(=O)(=O)c2cc(Cl)ccc2Cl)CC1` [CBK044628]: the viability at 28.5 h, 10 µM is 91.1%.

With `c1coc(-c2nccnc2NCCc2c[nH]c3ccccc23)c1` [CBK037316], the viability at 28.5 h, 10 µM was found to be 95.2%. For `CCOC(=O)Cn1c(C)nc2ccccc21` [CBK115311] the value was 103%; for `CC(CC(=O)O)CC(=O)NNc1ncc(Cl)cc1Cl` (stereo not shown) [CBK264398], 102%. For `COCCN(Cc1cnn(C)c1)Cc1cc(O)c2cc(F)ccc2n1` [CBK307359] the value was 103%; for `N#Cc1cn(Cc2ccco2)c(=O)[nH]c1=O` [CBK010407], 101%. The figure for `COc1ccc(C2(C(=O)NCc3ccc(OC(F)(F)F)cc3)CC2)cc1` [CBK149823] is 117%; for `O=C(COC(=O)c1ccncc1)c1ccc(OC(=O)c2ccccc2)cc1` [CBK265169] it is 87.3%.

On to `Cc1nccn1CC1(O)CCN(Cc2ccc(F)c(F)c2)CC1` [CBK284955], for which the viability at 28.5 h, 10 µM was 117%.

With `CCCc1ccc(S(=O)(=O)NCC(=O)OCC)cc1` [CBK034429], the viability at 28.5 h, 10 µM was 113%.

Regarding `CNC(=O)c1ccc(-c2ccc(N3CCOCC3)cc2)nc1NCC1CC1` [CBK106305], the viability at 28.5 h, 10 µM is 102%.

`O=C(c1ccc(-c2nccnc2NCC2CC2)cc1)N1CCOCC1` [CBK036814]: the viability at 28.5 h, 10 µM was 88.8%. Regarding `CC(C)COc1ccc(-c2nn(-c3ccccc3)cc2CSC(=N)N)cc1` [CBK264278C], the viability at 28.5 h, 10 µM was 0.298%. For `COc1ccc(NS(=O)(=O)c2cc(C(=O)O)cc(C)c2C)cc1OC` [CBK295148] the value was 82.9%.

Consider `O=C1Nc2ccc(-c3cccc(C(F)(F)F)c3)cc2C(=O)N2C[C@H](O)C[C@@H]12` [CBK289273], for which the viability at 28.5 h, 10 µM was found to be 106%. For `Nc1nc(SCC(=O)NCCCO)nc2sc3c(c12)CCCC3` [CBK057958] the value was 87.8%; for `Cc1ccc(SCCCn2ccnc2)cc1` [CBK269733C], 86.3%; for `O=C(O)CN1C(=O)[C@@H]2Cc3ccccc3CN2C1=O` [CBK202728], 82.8%.

As to `Cc1cc(Cl)ccc1OCCCC(=O)N1CCc2ccccc21` [CBK059016], the viability at 28.5 h, 10 µM came to 97.8%. Regarding `CCOc1ccccc1NC(=O)c1cc2cccnc2n(Cc2ccc(Cl)cc2)c1=O` [CBK294395], the viability at 28.5 h, 10 µM is 109%. As for `O=C(c1ccco1)N1CCN(c2cncc(-c3ccc(F)cc3F)n2)CC1` [CBK065818], the viability at 28.5 h, 10 µM was 93.7%. On to `COc1ccc(S(=O)(=O)N(Cc2cc(F)cc(F)c2)C2CCNCC2)cc1` [CBK165292T], for which the viability at 28.5 h, 10 µM was 89.8%. Take `N#CCCSc1ccn(C2CC(O)C(CO)O2)c(=O)n1` (stereo not shown) [CBK201261]: the viability at 28.5 h, 10 µM is 97.9%. For `CCOc1ccc(S(=O)(=O)Nc2ccc(C(=O)O)c(O)c2)cc1` [CBK299837] the value was 94.2%. For `CCCCC(c1cccnc1)N(C)C(=O)c1ccnc(-n2cnnc2)c1` (stereo not shown) [CBK306786] the value was 84.2%; for `O=C(Nc1ccc2oc(-c3cccnc3)nc2c1)c1cc([N+](=O)[O-])ccc1N1CCOCC1` [CBK268674], 95%; for `CN1CC2(CCCN(Cc3nnc(-c4cccnc4)o3)C2)OC1=O` (stereo not shown) [CBK306888], 110%. The figure for `COc1ccc(C(=O)Nc2ccc(C(C)=O)cc2)cc1[N+](=O)[O-]` [CBK262457] is 90.8%; for `Cc1ccc(Cn2cnc3c(nnn3-c3ccc(C)cc3)c2=O)cc1` [CBK287502] it is 102%; for `Fc1ccccc1CN(CCCn1ccnc1)Cc1cccnc1` [CBK283099] it is 90.4%. `CCOC(=O)c1cnc2ccc(F)cc2c1NCc1ccco1` [CBK265834]: the viability at 28.5 h, 10 µM came out at 97%. The figure for `OCc1ccc(-c2nccnc2NCc2cccs2)cc1` [CBK088689] is 99.1%; for `O=C(CSc1cccc2c(SCC(=O)c3ccccc3)cccc12)c1ccccc1` [CBK261255] it is 87.9%; for `Cc1cc(C)cc(NC(=O)N2CCN(c3nccnc3NS(C)(=O)=O)CC2)c1` [CBK048877] it is 105%. With `Cc1ccc2nc(NCc3ccco3)c(/C=N/Cc3ccco3)c(=O)n2c1` [CBK220353], the viability at 28.5 h, 10 µM came to 80.4%. For the compound `O=[N+]([O-])c1cccc(-c2ccc(OC3CCNCC3)cc2)c1` [CBK126465T], the viability at 28.5 h, 10 µM stood at 98.8%.

Consider `O=C(NC(c1ccc2c(c1)CCO2)[C@H]1C[C@@H](O)C1)c1c[nH]c(=O)c(Cl)c1` (stereo partly shown) [CBK306634], for which the viability at 28.5 h, 10 µM was 95%. For `O=C(O)/C=C/C(=O)NCCc1c[nH]c2ccccc12` [CBK287222], the viability at 28.5 h, 10 µM turned out to be 93%. For `Cc1ccc(NC(=O)CSc2nnc(N)[nH]2)cc1` [CBK034301] the value was 110%; for `CN(C)S(=O)(=O)N1CC2(CCN(C(=O)[C@@H]3CN(C(=O)C(C)(C)NC(=O)OC(C)(C)C)C[C@H]3c3cc4ccccc4o3)CC2)c2ccccc21` [CBK014088], 89%; for `CCc1noc(CN2CCN(c3ccc(C(=O)OC)cc3)CC2C)n1` (stereo not shown) [CBK306154], 86.4%.

In the case of `COc1ccc(-c2cc(C(=O)Nc3ccccn3)cnc2-c2ccccc2)cn1` [CBK037519], the viability at 28.5 h, 10 µM came out at 89.3%. For the compound `Cc1cc2ncn(CC(=O)Nc3c(C)noc3C)c2cc1C` [CBK200222], the viability at 28.5 h, 10 µM was found to be 79.5%. With `COc1ccc(-c2nn(-c3ccccc3)cc2/C=C2/SC(=S)N(Cc3ccccc3)C2=O)c(C)c1` [CBK265107], the viability at 28.5 h, 10 µM came to 93.7%. For `CNC(=O)C1(Cc2ccc(-c3ccccc3)cc2)CCN(C(=O)COc2ccccc2)CC1` [CBK285766] the value was 92.7%; for `O=C(Cn1cc(C(=O)NCc2ccccc2)ccc1=O)NC1(c2ccccc2)CCCC1` [CBK285753], 95.7%; for `CCn1c2ccccc2n2c(SCCC(=O)O)nnc12` [CBK267135], 102%. The figure for `O=C(c1ccccc1Br)N1CCN(c2ccc([N+](=O)[O-])c(NCc3cccnc3)c2)CC1` [CBK265735] is 100%.

For the compound `Cc1ccc2nc(SCC(=O)O)nc(C)c2c1` [CBK265996], the viability at 28.5 h, 10 µM was 94.1%.

For `COc1ccc(CCCC(=O)Nc2c(C)nn(C)c2N2CCNCC2)cc1OC` [CBK050252T], the viability at 28.5 h, 10 µM turned out to be 93%. For `CC(C)[C@@H](CO)Nc1nccnc1-c1cccs1` [CBK089024] the value was 93.7%; for `CSc1nnc(CC2CCN(C(=O)c3ccc(C)cc3F)CC2)n1C` [CBK306939], 105%.

The record behind these values is paper PMC12040169 (PLOS Biology, 2025).
